# Molecular target: human PDE1B enzyme (Homo sapiens (Human), UniProt Q01064)
# Assay: IMAP TR-FRET PDE1B enzymatic assay
# Assay type: biochemical
# Details: negative log of half-maximal molar inhibitory concentration; 200 nM FAM-cAMP; values given as bins
# Procedure, shortened: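 Full-length GST-tagged human PDE1B (250 pg/well) in IMAP BSA buffer with 10 U/ml calmodulin and 2.5 mM CaCl2; compound pre-incubated 5 min at room temperature, then 200 nM (final) FAM-cAMP for 30 min. IMAP binding reagent/Tb added, 1 h; TR-FRET 520/490 ratio read. IC50 from sigmoidal dose-response fit.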
row,SMILES,PDE1b (pIC50)
1,"Cc1oc2ncnc(NC3(C)CC3)c2c1C(=O)N1CCc2c(nc(Cl)nc2NC(C)C)C1 [Example 789, 5-{2-Chloro-4-[(propan-2-yl)amino]-5H,6H,7H,8H-pyrido[3,4-d]pyrimidine-7-carbonyl}-6-methyl-N-(1-methylcyclopropyl)furo[2,3-d]pyrimidin-4-amine]",>8
2,"Cc1oc2ncnc(NC3(C)CC3)c2c1C(=O)NCc1ncc2c(n1)CCC2 [Example 648, N-{5H,6H,7H-Cyclopenta[d]pyrimidin-2-ylmethyl}-6-methyl-4-[(1-methylcyclopropyl)amino]furo[2,3-d]pyrimidine-5-carboxamide]",>8
3,"Cc1oc2ncnc(NC3(C)CC3)c2c1C(=O)N1CC(c2cccc(F)n2)C1 [Example 354, 5-[3-(6-Fluoropyridin-2-yl)azetidine-1-carbonyl]-6-methyl-N-(1-methylcyclopropyl)furo[2,3-d]pyrimidin-4-amine]",>8
4,"COc1ccccc1[C@H]1[C@@H]2CN(C(=O)c3c(C)oc4ncnc(NC5(C)CC5)c34)C[C@@H]21 [Example 209, 5-[(1R,5S,6S)-6-(2-Methoxyphenyl)-3-azabicyclo[3.1.0]hexane-3-carbonyl]-6-methyl-N-(1-methylcyclopropyl)furo[2,3-d]pyrimidin-4-amine]",>8
5,"Cc1oc2ncnc(NC3(C)CC3)c2c1C(=O)NCc1cnn(-c2cccc(F)c2)c1 [Example 572, N-{[1-(3-Fluorophenyl)-1H-pyrazol-4-yl]methyl}-6-methyl-4-[(1-methylcyclopropyl)amino]furo[2,3-d]pyrimidine-5-carboxamide]",>8

# Same assay, conditions: negative log of half-maximal molar inhibitory concentration; 200 nM FAM-cAMP; values given as bins; read-out: PDE1b (pIC50) (converted)
row,SMILES,IC50 [nM]
1,"Cc1oc2ncnc(NC3(C)CC3)c2c1C(=O)NCc1cc(C(N)=O)on1 [Example 328, 3-[({6-Methyl-4-[(1-methylcyclopropyl)amino]furo[2,3-d]pyrimidin-5-yl}formamido)methyl]-1,2-oxazole-5-carboxamide]",10 to 100
2,"Cc1oc2ncnc(NC3(C)CC3)c2c1C(=O)N1CCn2ncc(Br)c2C1 [Example 641, 5-{3-Bromo-4H,5H,6H,7H-pyrazolo[1,5-a]pyrazine-5-carbonyl}-6-methyl-N-(1-methylcyclopropyl)furo[2,3-d]pyrimidin-4-amine]",100 to 1000
3,"Cc1oc2ncnc(NC3(C)CC3)c2c1C(=O)NCc1cnc(C2CC2)cn1 [Example 732, N-[(5-Cyclopropylpyrazin-2-yl)methyl]-6-methyl-4-[(1-methylcyclopropyl)amino]furo[2,3-d]pyrimidine-5-carboxamide]",10 to 100
4,"Cc1oc2ncnc(NC3(C)CC3)c2c1C(=O)NCc1ccc(OC(F)(F)F)cc1 [Example 722, 6-Methyl-4-[(1-methylcyclopropyl)amino]-N-{[4-(trifluoromethoxy)phenyl]methyl}furo[2,3-d]pyrimidine-5-carboxamide]",10 to 100
5,"CCN(Cc1cc(OC)ncn1)C(=O)c1c(C)oc2ncnc(NC3(C)CC3)c12 [Example 813, N-Ethyl-N-[(6-methoxypyrimidin-4-yl)methyl]-6-methyl-4-[(1-methylcyclopropyl)amino]furo[2,3-d]pyrimidine-5-carboxamide]",100 to 1000
6,"COc1ncc(C2CCN(C(=O)c3c(C)oc4ncnc(NC5(C)CC5)c34)CC2)cn1 [Example 394, 5-[4-(2-Methoxypyrimidin-5-yl)piperidine-1-carbonyl]-6-methyl-N-(1-methylcyclopropyl)furo[2,3-d]pyrimidin-4-amine]",10 to 100
7,"Cc1oc2ncnc(NC3(C)CC3)c2c1C(=O)N1CCc2cc(C#N)ccc2C1 [Example 58, 2-{6-Methyl-4-[(1-methylcyclopropyl)amino]furo[2,3-d]pyrimidine-5-carbonyl}-1,2,3,4-tetrahydroisoquinoline-6-carbonitrile]",10 to 100
8,"Cc1oc2ncnc(NC3(C)CC3)c2c1C(=O)N(C)Cc1nc2ccc(F)cc2[nH]1 [Example 575, N-[(6-Fluoro-1H-1,3-benzodiazol-2-yl)methyl]-N,6-dimethyl-4-[(1-methylcyclopropyl)amino]furo[2,3-d]pyrimidine-5-carboxamide]",100 to 1000
9,"CCOCCNC(=O)c1c(C)oc2ncnc(NC3(C)CC3)c12 [Example 171, N-(2-Rthoxyethyl)-6-methyl-4-[(1-methylcyclopropyl)amino]furo[2,3-d]pyrimidine-5-carboxamide]",100 to 1000
10,"Cc1cc(C(C)NC(=O)c2c(C)oc3ncnc(NC4(C)CC4)c23)no1 (stereo not drawn) [Example 350, 6-Methyl-N-[1-(5-methyl-1,2-oxazol-3-yl)ethyl]-4-[(1-methylcyclopropyl)amino]furo[2,3-d]pyrimidine-5-carboxamide]",10 to 100
11,"Cc1oc2ncnc(NC3(C)CC3)c2c1C(=O)NCc1cncs1 [Example 74, 6-Methyl-4-[(1-methylcyclopropyl)amino]-N-(1,3-thiazol-5-ylmethyl)furo[2,3-d]pyrimidine-5-carboxamide]",10 to 100
12,"Cc1oc2ncnc(NC3(C)CC3)c2c1C(=O)Nc1cnc(C2CCOCC2)cn1 [Example 736, 6-Methyl-4-[(1-methylcyclopropyl)amino]-N-[5-(oxan-4-yl)pyrazin-2-yl]furo[2,3-d]pyrimidine-5-carboxamide]",10 to 100
13,"Cc1oc2ncnc(NC3(C)CC3)c2c1C(=O)NC1(C2CC2)CCOCC1 [Example 129, N-(4-Cyclopropyloxan-4-yl)-6-methyl-4-[(1-methylcyclopropyl)amino]furo[2,3-d]pyrimidine-5-carboxamide]",10 to 100
